Each structure is given as a SMILES string.

The results in this text go back to ChEMBL document CHEMBL3507680, “University of Dundee, Gates Library screen for HepG2 cell viability”.

A short description of this series: Human HepG2 cell viability assay in 384 well format. Conditions: HepG2 cells, read-out: Inhibition. The arrangement: dose 125 nL, time 70.5 hour; cytotoxicity at 70.5 h: concentration not given beside the values. It counts as toxicity, cell-based.
As for `CC(=O)c1csc(-c2csc(Cn3ccc(=O)[nH]c3=O)n2)c1`, the cytotoxicity at 70.5 h turned out to be 4.03%.
On to `NC(=O)NC(=O)CCn1ccc(-c2ccsc2)n1`, for which the cytotoxicity at 70.5 h is -1.15%.
As for `Cc1noc(C)c1CSCc1nc(N)c2ccccc2n1`, the figure is 0.626%; as for `C[C@@H]1CN(C(=O)Nc2cccc(OC(F)F)c2)CC(C(N)=O)O1` (stereo partly specified), -1.07%.
`Cn1cc(S(=O)(=O)N2CCC(OCCCc3ccccc3)C2)cn1` (stereo unspecified): the cytotoxicity at 70.5 h came out at 21.6%.
For `CCc1nc(CC(=O)NC(C#N)CC(C)C)cs1` (stereo unspecified), the cytotoxicity at 70.5 h was -0.177%.
In the case of `COCCN(Cc1ccco1)Cc1nc(-c2ccsc2)no1` it was 11.1%.
In the case of `COCCN(Cc1ccco1)Cc1nc(-c2ccccc2C)no1` it was 1.45%; in that of `COCCN(Cc1ccco1)Cc1nc(-c2ccc(C)c(F)c2)no1`, 17.2%.
As for `CCc1nc(CC(=O)NC(C#N)CC)cs1` (stereo unspecified), the figure is -0.988%; as for `C1CCN(CCOC2CCNCC2)CC1`, 19.9%; as for `Cc1[nH]ccc1C(=O)N(Cc1ccc(O)cc1)CC1CC1`, -3.9%.
Regarding `Cn1cc(C(=O)Nc2cccc(CCN3CCCC3)c2)ccc1=O`, the cytotoxicity at 70.5 h is -5.46%.
As to `COCCNC(=O)C(C)S(=O)(=O)c1ccc(OC)cc1` (stereo unspecified), the cytotoxicity at 70.5 h came out at 6.85%.
As for `CC1CCN(c2ccnc3ccc(Br)cc23)CC1`, the figure is 2%; as for `O=C(CNC(=O)C1CC1)NCCOc1cccc(Cl)c1Cl`, 31.3%; as for `O=C1CCC(C(=O)NCCOc2ccccc2-c2ccccc2)CN1` (stereo unspecified), -13.3%.
Consider `CC(C)CNC(=O)c1ccc(NC(=O)NCC2CC2)cc1Cl`, for which the cytotoxicity at 70.5 h is -12.7%.
On to `NC(=O)CCn1nnc(-c2cc3ccccc3o2)n1`, for which the cytotoxicity at 70.5 h was -13.1%.
For the compound `N#CCCN(Cc1ccco1)C(=O)Cc1ccc(-n2cnnn2)cc1`, the cytotoxicity at 70.5 h is -6.73%.
Regarding `CSc1sc(NC(=O)C2CCCN(C(N)=O)C2)nc1C` (stereo unspecified), the cytotoxicity at 70.5 h was -13.6%.
Regarding `CC1CCN(C(=O)C(C)N2CCc3[nH]nc(C(F)(F)F)c3C2)CC1` (stereo unspecified), the cytotoxicity at 70.5 h was -8.79%.
As to `CC(C)(C)CN(CCC#N)C(=O)Cc1ccc(-n2cnnn2)cc1`, the cytotoxicity at 70.5 h was -10.8%.
As for `CC(C(=O)NC1CCCCC1)N1CCc2[nH]nc(C(F)(F)F)c2C1` (stereo unspecified), the figure is -7.82%.
In the case of `CC(C)(C)NS(=O)(=O)c1cc(NC(=O)C2CC2)ccc1F`, the cytotoxicity at 70.5 h is -5.03%.
In the case of `O=C(CCc1ccsc1)NS(=O)(=O)Cc1ccon1` it was -0.591%; in that of `CCN1CCN(C(=O)NC(C)c2noc(-c3ccccc3)n2)CC1` (stereo unspecified), -6.34%; in that of `O=C(CSCc1ccccn1)N(Cc1ccsc1)C1CC1`, -2.85%.
As for `CC(C)(C)c1ncc(CNCC2CCCn3ccnc32)s1` (stereo unspecified), the cytotoxicity at 70.5 h was -4.17%.
Turning to `CN1CCOC(C(=O)Nc2ccc3c(c2)nc(C(C)(C)C)n3C)C1` (stereo unspecified), the cytotoxicity at 70.5 h is -2.12%.
In the case of `Cc1ccc(CNCC2CCCn3ccnc32)s1` (stereo unspecified) it was -4.1%; in that of `CCCN(CCN(C)C)C(=O)Cc1cn2ccsc2n1`, 5.05%; in that of `N#Cc1ccc(NCCCOCC2CCOC2)c(F)c1` (stereo unspecified), 6.96%.
As for `CC(Cn1cccn1)NS(=O)(=O)Cc1ccccc1` (stereo unspecified), the figure is 24.2%; as for `CN(CCC#N)C(=O)Cc1csc(-c2ncccn2)n1`, -3.29%.
Turning to `c1cncc(-c2ccnn2CN2CCC3(CC2)OCCO3)c1`, the cytotoxicity at 70.5 h was -5.34%.
As for `CN(C)C(=O)Cn1ccc2cc(NC(=O)N3CCSCC3)ccc21`, the cytotoxicity at 70.5 h is -7.46%.
Regarding `CN(C)C(=O)Cn1ccc2cc(NC(=O)N3CCOCC3)ccc21`, the cytotoxicity at 70.5 h was -5.35%.
In the case of `Cc1cnn(CCCNC(=O)NC2CCN(CC(F)(F)F)C2=O)c1` (stereo unspecified) it was -4.78%; in that of `CC(C)(NCC(=O)N1CCCC(C(N)=O)C1)c1ccc(Cl)cc1` (stereo unspecified), -3.83%.
In the case of `CCC[C@@H](NC(N)=O)C(=O)N1Cc2ccccc2-c2ccccc2C1` it was -2.69%; in that of `CC(CC(=O)Nc1ccc(C(=O)N(C)C)c(Cl)c1)n1cccc1` (stereo unspecified), 7.79%; in that of `COc1cccc2c1CCN(C(=O)NCCc1nccn1C)C2`, -1.05%.
In the case of `COc1cccc2c1CCN(C(=O)NCc1nnc3ccccn13)C2`, the cytotoxicity at 70.5 h came out at 0.687%.
As for `CN1CCOC(C(=O)N2CCC3(CCCC3)CC2)C1` (stereo unspecified), the figure is -2.13%; as for `COc1ccc(Cl)cc1NC(=O)N(C)CC(O)COCCOC(C)C` (stereo unspecified), -4.88%; as for `CC(=O)NC1CCCN(c2ccc(C#N)cc2C(F)(F)F)C1` (stereo unspecified), -0.014%.
Consider `CN1CCOC(C(=O)N2CCCC(C)(C)CC2)C1` (stereo unspecified), for which the cytotoxicity at 70.5 h was -3.51%.
As for `O=S(=O)(Cc1ccccc1Cl)NC(CO)c1ccco1` (stereo unspecified), the figure is -6.59%.
In the case of `Cc1ccc(OCC(=O)N(C)Cc2ccc(F)cc2)cn1` it was -8.48%; in that of `COCC1CN(C(=O)Nc2cc(C(F)(F)F)ccc2F)CCO1` (stereo unspecified), -5.23%; in that of `COc1ccccc1CN(Cc1nc2c(cnn2C)c(=O)[nH]1)C1CC1`, 28.9%.
As for `COc1ccccc1N(C)Cc1nc2c(cnn2C)c(=O)[nH]1`, the figure is -4.86%.
As to `COc1ccccc1C1(CNc2snc(Cl)c2C#N)CCOCC1`, the cytotoxicity at 70.5 h is -4.49%.
In the case of `CC(C)(CC(=O)N(CC(N)=O)C1CCCC1)c1ccccc1` it was -9.09%; in that of `CN(CCn1cccn1)S(=O)(=O)c1cccc(F)c1C#N`, -9.35%; in that of `COCC1CN(C(=O)Nc2cc(Cl)cc(Cl)c2)CCO1` (stereo unspecified), -5.22%.
In the case of `CCCn1nc(-c2nc(COc3ccccc3)no2)ccc1=O` it was -7.31%.
As for `CCCn1nc(-c2nc(Cc3ccc(OC)cc3)no2)ccc1=O`, the figure is -8.43%.
As to `Cc1cc(C#N)ccc1S(=O)(=O)N1CCN(C)Cc2ccccc21`, the cytotoxicity at 70.5 h was -0.39%.
As for `Cc1noc(COCC(=O)Nc2ccc(Br)c(C)n2)n1`, the figure is 24.3%.
In the case of `Cc1noc(CCCC(=O)Nc2ncccc2Br)n1` it was -7.59%; in that of `CS(=O)(=O)CCOCCNc1ccc2ccc(F)cc2n1`, -3.21%; in that of `Cc1cc(F)ccc1S(=O)(=O)N1CCN(C)Cc2ccccc21`, -6.39%.
As for `CCC(C)CN(C)C(=O)NCc1ccccc1-n1cccn1` (stereo unspecified), the figure is 1.17%; as for `Cc1noc(COCC(=O)Nc2ncccc2Br)n1`, 2.34%.
In the case of `COCC1CN(C(=O)Nc2ccc(Cl)cc2Cl)CCO1` (stereo unspecified), the cytotoxicity at 70.5 h is -8.42%.
As for `CCCN1CCCN(C(=O)C(CC)N2CCCC2=O)CC1` (stereo unspecified), the figure is -14.5%; as for `COCC1CN(C(=O)Nc2cc(Br)ccc2F)CCO1` (stereo unspecified), -10.1%.
As for `COc1cc(F)c(S(=O)(=O)N2CCN(C)Cc3ccccc32)cc1OC`, the figure is -10.1%; as for `CC(=O)NCCC(=O)Nc1sccc1C(=O)C(C)(C)C`, 2.44%; as for `CS(=O)(=O)NCCC(=O)N1CCN(S(=O)(=O)c2ccc(Br)cc2)CC1`, 6.55%.
Regarding `Cc1ccnc(NC(=O)CSCc2cccnc2)c1`, the cytotoxicity at 70.5 h is -2.67%.
Regarding `Cc1ccc(-n2ncc(C(=O)NC3CCCCC3)c2N)cc1`, the cytotoxicity at 70.5 h was -2.62%.
As for `O=C(NCCc1ccccc1)N1CCC(C2OCCO2)CC1`, the figure is -4.29%; as for `CN(C)C(=O)CNS(=O)(=O)c1cc(Br)ccc1F`, 2.64%.
As for `CC(O)CNC(=O)NCCCN1CCN(c2ncccn2)CC1` (stereo unspecified), the figure is -6.22%; as for `O=C(c1ccncn1)N1CCC[C@]2(C[C@@H](OCc3ccccn3)CO2)C1`, 10.5%; as for `Cc1cc(C(=O)N2CCn3cc(CN4CCCC4)nc3C2)no1`, -13.3%.
As for `O=C(c1cccc(F)c1)N1CC[C@@H]2CN(c3ncccn3)CCO[C@@H]2C1`, the figure is -15.1%; as for `O=C(c1cscn1)N1CCc2ncc(CN3CCOCC3)n2CC1`, -15.7%.
For the compound `CN(C)Cc1cnc2n1CCN(C(=O)C1CC=CC1)CC2`, the cytotoxicity at 70.5 h was -12.7%.
With `O=C(C1CCOCC1)N1CCc2ncc(CN3CCCCC3)n2CC1`, the cytotoxicity at 70.5 h is -10.2%.
In the case of `Cc1ccccc1C(=O)N1CC[C@@H]2CN(c3ncccn3)CCO[C@@H]2C1` it was -10.9%.
As for `O=C([C@H]1CCCO1)N1CCc2ncc(CN3CCOCC3)n2CC1`, the figure is -11.9%; as for `O=C(Cc1ccc(F)cc1)N1CCn2cc(Cn3cncn3)nc2C1`, -9.64%.
Take `COc1cccc(CNC(=O)c2nc3c(s2)CCN(C(C)=O)CC3)c1`: the cytotoxicity at 70.5 h is -11%.
As for `C1CCN(CCOC2CCNC2)CC1` (stereo unspecified), the figure is -3.02%; as for `O=C(NCc1ccco1)[C@H]1COC[C@H]2CN(Cc3ccoc3)C[C@H]21`, 13.6%.
In the case of `O=C(CC1CCCC1)N1CCn2cc(Cn3cccn3)nc2C1` it was -11.5%; in that of `c1ccc(CN2CCC3(CC2)CC(Nc2nccs2)CO3)nc1` (stereo unspecified), -8.19%.
As for `O=C(CC1CC1)N1CCn2cc(Cn3cccn3)nc2C1`, the figure is -15.8%; as for `O=C([C@@H]1CCO[C@@H]2CCN(Cc3ccsc3)C[C@@H]21)N1CCCC1`, -16.1%.
Take `O=C(Cc1cccc(F)c1)N1CCn2cc(Cn3cccn3)nc2C1`: the cytotoxicity at 70.5 h was -10.7%.
As to `O=C(C1CCOCC1)N1CCc2ncc(CN3CCCC3)n2CC1`, the cytotoxicity at 70.5 h was -13.2%.
As for `CNC(=O)[C@@H]1CCO[C@@H]2CCN(Cc3ccsc3)C[C@H]21`, the figure is -14%.
As for `O=C(Nc1cnccn1)[C@@H]1CCO[C@@H]2CCN(Cc3ccsc3)C[C@@H]21`, the figure is -9.48%; as for `Cc1noc(C)c1C(=O)N1CC[C@]2(C[C@@H](OCc3cccnc3)CO2)C1`, -9.24%.
As for `CNC(=O)C1Cn2ccnc2C2(CCN(Cc3nccs3)CC2)O1` (stereo unspecified), the figure is 10.7%; as for `CC(C)NC(=O)[C@H]1C[C@H]2OCC[C@H]2N(Cc2ccc3ccccc3n2)C1`, -0.387%.
`CN(C)c1ccc(CNC2=NCCCN2)cc1`: the cytotoxicity at 70.5 h worked out at 13.3%.
